Results reported in patent USRE43244E1, “Phenylethylamines and condensed rings variants as prodrugs of catecholamines, and their use” (priority 2001, dated 2012).
Counter-ions that a name gives are not always drawn. Blank lines part the entries; values can stand above or below the molecule they belong to.

How the values were obtained:
D3 dopamine receptor = D3 dopamine receptor (Rattus norvegicus, UniProt P19020); settings: among screened classical and atypical neuroleptics; cited from earlier work
[1] = test system: DA metabolites DOPAC and HVA; settings: no NSD1015 treatment; cited from earlier work
Dopa accumulation = settings: normal animals, after NSD1015; cited from earlier work
rodents = settings: cited from earlier work; for Dopaminergic stereotypic behavioral effects (sniffing, rearing): gross behavioral observations, certain dosages, rodents; for Locomotor activity: photocell motility meters
DA receptors = settings: cited from earlier work
rats [2] = settings: cited from earlier work
rats [3] = experiment: Behavioral testing in rats of GMC6650; type: in vivo, rat
Protocol: Behavioral Testing in Rats of Compound GMC6650 (Example 6)
One rat, weighing about 350 g, was injected SC in the neck with 1 μmol/kg of GMC6650. Another rat, weighing about 350 g, was injected PO with the same dose. The drug (3.4 mg) was initially dissolved in: ethanol (50 μL), 1 M acetic acid (2 drops), and water (1.4 mL), corresponding to 15 μmol per 1.5 mL, which means a concentration of 10 μmol/mL. By first diluting that solution 10 times and injecting 0.35 mL, the given dose will be 1 μmol/kgμmol/kg. This goes for both of rats.
Stereotypy was intense and was registered for several hours by visual inspection. […] The next morning, the SC rat was still active, while the PO rat was resting. Duration of action was thus ≧10 h for both sc and po administration of 1 μmol/kg.

[4] = 1 μmol/kg, SC or PO (same pattern in both rats)

Sequence of D3 dopamine receptor (P19020 whole entry): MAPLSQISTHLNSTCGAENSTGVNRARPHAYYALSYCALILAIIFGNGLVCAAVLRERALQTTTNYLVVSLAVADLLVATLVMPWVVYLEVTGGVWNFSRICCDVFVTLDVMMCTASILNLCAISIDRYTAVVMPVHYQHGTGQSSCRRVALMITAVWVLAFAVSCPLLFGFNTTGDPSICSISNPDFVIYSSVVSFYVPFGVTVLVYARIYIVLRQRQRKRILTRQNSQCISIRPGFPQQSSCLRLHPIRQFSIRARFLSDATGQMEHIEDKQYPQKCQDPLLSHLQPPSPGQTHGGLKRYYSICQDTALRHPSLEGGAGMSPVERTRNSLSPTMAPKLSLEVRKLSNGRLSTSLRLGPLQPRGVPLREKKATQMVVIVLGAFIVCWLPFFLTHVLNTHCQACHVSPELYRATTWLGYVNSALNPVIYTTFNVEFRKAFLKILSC

melting point: 148 to 149 °C
Structure (SMILES): CCN(CC)CCC1=CC(=O)CCC1 (as salt: hydrochloride)

melting point: 110 to 112 °C
Structure (SMILES): CCCN(CCC1=CC(=O)CCC1)CCc1ccccc1 (as salt: hydrochloride)

melting point: 95 to 97 °C
Structure (SMILES): CCCN(CCC)CCC1=CC(=O)CCC1 (as salt: hydrochloride)

Further lines, the molecule ahead of its results:

Structure (SMILES): CCCN[C@@H]1CCc2c(OC)cccc2[C@@H]1C (relative stereo) [(+)-AJ76, (+)-cis-1S,2R-5-methoxy-1-methyl-2-(N-n-propylamino)tetralin]
Preference for the D3 site (D3 dopamine receptor): highest preference for the D3 site
Levels of DA metabolites DOPAC and HVA [1]: raise the levels
Dopa accumulation (Dopa accumulation): raise the Dopa accumulation
Dopaminergic stereotypic behavioral effects (sniffing, rearing) (rodents): weak
Locomotor activity (rodents): increase the locomotor activity

Structure (SMILES): CCCN(CCC)C1CCC2=C(CCCC2=O)C1 (racemic) [(±)-5-keto-DPATT, (±)-5-keto-2-N,N-di-n-propylamino-tetrahydrotetralin]
Affinity to DA receptors (in vitro binding) (DA receptors): no affinity
Dopaminergic effects in vivo (rats [2]): does possess dopaminergic effects

Structure (SMILES): CCCN(CCC)[C@@H]1CCc2c(OC)cccc2[C@@H]1C (relative stereo) [(+)-UH232, (+)-cis-1S,2R-5-methoxy-1-methyl-2-(N,N-di-n-propylamino)tetralin]
Preference for the D3 site (D3 dopamine receptor): highest preference for the D3 site
Levels of DA metabolites DOPAC and HVA [1]: raise the levels
Dopa accumulation (Dopa accumulation): raise the Dopa accumulation
Dopaminergic stereotypic behavioral effects (sniffing, rearing) (rodents): weak
Locomotor activity (rodents): increase the locomotor activity

Structure (SMILES): CCCN1CCC[C@@H]2CC3=C(CCCC3=O)C[C@H]21 (relative stereo) [GMC6650, 1-Propyl-trans-2,3,4,4a,5,7,8,9,10,10a-decahydrobenzo[g]quinolin-6-one]
Activity the next morning (rats [3]; 1 μmol/kg PO): resting
Activity the next morning (rats [3]; 1 μmol/kg SC): still active
Duration of action (rats [3]; 1 μmol/kg po): ≥ 10 h
Duration of action (rats [3]; 1 μmol/kg sc): ≥ 10 h
Stereotypy after 10 hours (rats [3]; 1 μmol/kg, SC and PO rat, 10 hours after dosing): still showing signs of stereotypy
Time until clear signs of stereotypy (rats [3]; [4]): 30 min
Time until obvious dopaminergic effects (chewing, sniffing, licking, penile grooming, grooming) (rats [3]; [4]): 15 min
Time until rats became sedated, closing or partly closing their eyes (rats [3]; [4]): 10 min
Stereotypy, visual inspection (rats [3]; 1 μmol/kg, SC or PO, registered for several hours): intense

Structure (SMILES): CCCN1CCCC(C2=CC(=O)CCC2)C1 (stereo not shown) (as salt: hydrochloride)
melting point: 184 to 185 °C
